These are literature values, as cited in US20110052647A1, “Antidepressant Oral Pharmaceutical Compositions” (priority 2005, published 2011).

For data set [1] the following is noted: oral administration of capsules containing enteric-coated pellets.
Test in data set [2]: not given
This is another data set of the same source.

In data set [3] the test system is dopaminergic, adrenergic, cholinergic or histaminergic receptors. Particulars: in vitro.

Each structure is given as a SMILES string.

For `CNCC[C@H](Oc1cccc2ccccc12)c1cccs1` [Duloxetine, (S)-N-methyl-3-(1-naphthyloxy)-3-(2-thienyl)propan-1-amine], the “inhibition of monoamine oxidase (MAO)” value in the data set with monoamine oxidase (MAO) is reported as “does not inhibit”. Besides, under “pH of 1.0, within one hour”, the “dosage hydrolyzed to 1-naphthol” value is recorded as 50%. Besides, under “pH of 2.0, in one hour”, the “dosage degrades to 1-Naphthol” value is given as 10%. In addition, the “time for 10% degradation” value (pH of 4.0) was “up to 63 hours”. Besides, in data set [1], the “mean plasma elimination half-life” value is 12.1 h and the “median time to maximum concentration (Tmax)” value was 6 h. Further, the “pH values at which unstable in solution” value in data set [2] is listed as “less than 2.5”. Also, in data set [3], the “affinity for dopaminergic, adrenergic, cholinergic or histaminergic receptors” value was “no significant affinity”.
